Test results: PMC7466280 (Cell, 2020)
Like-named read-outs stand apart in the source and are kept apart here.

How the values were obtained:
NTSR1 [1] = target: T1, NTSR1 (Homo sapiens, UniProt P30989); assay: Apo-aequorin calcium assay; assay type: cell-based; conditions: for effect on NTS-induced Ca2+ mobilization: in combination with NTS (10 nM); for Ca2+ mobilization: ligand alone
NTSR1 [2] = target: T1, NTSR1; assay: Phosphorylated NTSR1 detection by western blot; assay type: cell-based; conditions: NTSR1-expressing HEK293T cells; NTS 10 nM, SBI-553 10 μM, SR142948A 10 μM
NTSR1 [3] = target: T1, NTSR1; assay: NTSR1 internalization assay; assay type: cell-based
NTSR1 [4] = target: T1, NTSR1; assay: Radioligand binding to NTSR1-containing HEK293T cell membranes
C57BL/6J mice [5] = assay: Intravenous cocaine self-administration; assay type: in vivo, mouse
C57BL/6J mice [6] = assay: Core body temperature measurement; assay type: in vivo, mouse; conditions: PD149163 0.1 – 1 mg/kg i.p.; SBI-553 2–30 mg/kg i.p.
NTSR1 [7] = target: T1, NTSR1; assay: IP3 BRET assay; assay type: cell-based; conditions: for effect on NTS-induced IP3 production: in combination with NTS; for IP3 generation: ligand alone, SBI-553 10 μM, SR142948A 10 μM
β-arrestin2 KO mice = assay type: in vivo, mouse; conditions: 12 mg/kg i.p.; for cocaine-induced hyperlocomotion: cocaine 30 mg/kg i.p.
C57BL/6J mice [8] = assay: Contact righting test; assay type: in vivo, mouse; conditions: PD149163 i.p. 120 min, SBI-553 i.p. (up to 30 mg/kg) 30 min prior to testing
NTSR1 [9] = target: T1, NTSR1; assay: Confocal β-arrestin2 translocation assay in U2OS cells; assay type: cell-based; conditions: for β-arrestin2 translocation: NTSR1-expressing U2OS cells, ligand alone
NTSR1 [10] = target: T1, NTSR1; assay: Gq protein activation by TGFα shedding assay; assay type: cell-based; conditions: for effect on NTS-induced Gq activation: in combination with NTS; for Gq activation: ligand alone
C57BL/6J mice [11] = assay: Horizontal wire test; assay type: in vivo, mouse; conditions: PD149163 i.p. 120 min, SBI-553 i.p. (up to 30 mg/kg) 30 min prior to testing
C57BL/6J mice [12] = assay: Stimulant-induced hyperlocomotion in the open field; assay type: in vivo, mouse; conditions: 12 mg/kg i.p.
NTSR1 [13] = target: T1, NTSR1; assay: BRET β-arrestin2 recruitment assay in HEK293T cells; assay type: cell-based
C57BL/6J mice [14] = assay: Blood pressure measurement; assay type: in vivo, mouse; conditions: SBI-553 12 mg/kg i.p.; PD149163 0.3 mg/kg i.p.; 60 minutes post-treatment
DAT KO mice = assay: L-DOPA-induced restoration of locomotion in dopamine depleted DAT KO mice; assay type: in vivo, mouse; conditions: 12 mg/kg i.p., AMPT dopamine-depleted DAT KO mice
NTSR1 [15] = target: T1, NTSR1; assay: Phosphorylated ERK detection by western blot; assay type: cell-based
C57BL/6J mice [16] = assay: Oral SBI-553 modulation of PD149163-induced hypothermia and hypoactivity; assay type: in vivo, mouse; conditions: SBI-553 10, 30, 100 mg/kg p.o. 30 min prior to PD149163 i.p.
C57BL/6J mice [17] = assay: Methamphetamine conditioned place preference; conditions: 12 mg/kg i.p. 15 min prior to test
[18] = low-concentration NTS, maximal levels not altered
[19] = [3H]NTS saturation binding with SBI-553 0.01 – 10 μM
[20] = 12 mg/kg i.p., cocaine 0.1 mg/kg/infusion
[21] = HEK293T cells expressing human NTSR1, SBI-553 10 μM, SR142948A 10 μM

T1 sequence (P30989 whole entry): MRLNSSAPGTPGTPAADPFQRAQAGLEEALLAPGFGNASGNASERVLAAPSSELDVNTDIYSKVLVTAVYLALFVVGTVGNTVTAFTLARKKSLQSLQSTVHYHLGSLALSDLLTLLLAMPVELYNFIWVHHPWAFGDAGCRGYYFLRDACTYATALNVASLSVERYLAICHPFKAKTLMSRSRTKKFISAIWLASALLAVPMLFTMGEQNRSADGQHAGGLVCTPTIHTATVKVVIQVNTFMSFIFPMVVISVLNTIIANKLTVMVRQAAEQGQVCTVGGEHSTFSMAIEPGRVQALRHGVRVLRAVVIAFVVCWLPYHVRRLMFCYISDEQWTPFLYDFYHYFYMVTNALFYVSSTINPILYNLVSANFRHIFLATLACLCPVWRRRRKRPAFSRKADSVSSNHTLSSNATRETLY

## COc1ccccc1C1CCN(c2nc(C3(F)CC3)nc3ccc(N(C)CCO)cc23)CC1 [SBI-553]
NTSR1 [1]
  effect on NTS-induced Ca2+ mobilization: attenuated
  Ca2+ mobilization: neither SBI-553 nor SR142948A stimulated
NTSR1 [2]
  NTSR1 phosphorylation (phosphothreonine blot): resulted in NTSR1 phosphorylation
NTSR1 [3]; ligand alone
  NTSR1 internalization: stimulated NTSR1 internalization
NTSR1 [3]; [18]
  effect of pretreatment on NTS-induced NTSR1 internalization: enhanced
NTSR1 [4]; 5 nM [3H]NTS, 10 μM unlabeled ligand
  effect on total [3H]NTS binding: increased total [^3H]NTS binding
NTSR1 [4]; [19]
  increase of NTS affinity for NTSR1 (Kd): up to 3.9 fold
  increase of number of available [3H]NTS binding sites (Bmax): up to 3.3 fold
C57BL/6J mice [5]; 12 mg/kg i.p., 3-day test
  lever discrimination (percent responses at active and inactive levers): lever discrimination was unchanged
C57BL/6J mice [5]; [20]
  activity at the inactive lever: unchanged across treatments
  cocaine intake, level of the vehicle control: less than 20%
  latency to initiate lever responding: increased the latency to initiate lever responding
  percent of lever responses during the post-reinforcement cue period: reduced the percent of lever responses that occurred during the post-reinforcement cue period
C57BL/6J mice [5]; 12 mg/kg i.p., cocaine 0.1 mg/kg/infusion, FR4, 60 min session
  cumulative self-administered cocaine reinforcements: fewer cumulative self-administered reinforcements between 20 and 60 min
C57BL/6J mice [5]; 12 mg/kg i.p., cocaine 0.1 mg/kg/infusion, relative to Vehicle and No Treatment
  total and active lever responses: significantly suppressed total and active lever responses
C57BL/6J mice [5]; SBI-553 2, 6, 12 mg/kg i.p., cocaine 1 mg/kg/infusion
  cocaine self-administration at the highest cocaine dose: No change in self-administration
C57BL/6J mice [5]; SBI-553 2, 6, 12 mg/kg i.p., cocaine 0.1-1 mg/kg/infusion
  lever accuracy: not altered by SBI-553 treatment
C57BL/6J mice [5]; SBI-553 6, 12 mg/kg, cocaine 0.1, 0.3, 0.5 mg/kg/infusion
  cocaine self-administration dose-response: greater efficacy at lower cocaine infusion doses
C57BL/6J mice [6]
  core body temperature: no effect on core body temperature
NTSR1 [7]
  effect on NTS-induced IP3 production: attenuated
  IP3 generation: neither SBI-553 nor SR142948A stimulated
β-arrestin2 KO mice; A2aR-Cre animals (deletion in striatal D2R-expressing neurons)
  methamphetamine-induced hyperlocomotion: no SBI-553 effects were observed
β-arrestin2 KO mice; D1RCre animals (β-arrestin2 deletion in D1R-expressing neurons)
  methamphetamine-induced hyperlocomotion: effectively reduced
β-arrestin2 KO mice; D2R-Cre mice (β-arrestin2 deletion in D2R-expressing neurons)
  methamphetamine-induced hyperlocomotion: failed to affect locomotion
β-arrestin2 KO mice; DAT-Cre mice (deletion in midbrain D2R-expressing neurons)
  methamphetamine-induced hyperlocomotion: reduced the methamphetamine-induced hyperlocomotion
β-arrestin2 KO mice; WT mice on C57BL/6J background
  cocaine-induced hyperlocomotion: decrease
β-arrestin2 KO mice; WT mice on C57BL/6J background, methamphetamine 2 mg/kg i.p.
  methamphetamine-induced hyperlocomotion: decrease
β-arrestin2 KO mice; global β-arrestin2 knockout mice
  cocaine-induced hyperlocomotion: a significant reduction in locomotion was absent
β-arrestin2 KO mice; global β-arrestin2 knockout mice, methamphetamine 2 mg/kg i.p.
  methamphetamine-induced hyperlocomotion: a significant reduction in locomotion was absent
β-arrestin2 KO mice; β-arrestin2 f/f Cre negative littermate controls
  methamphetamine-induced hyperlocomotion: effectively reduced
C57BL/6J mice [8]
  righting reflex: failed to influence
NTSR1 [9]; NTS 200 nM, SBI-553 7.5 μM, 40 min
  β-arrestin2 translocation in U2OS cells lacking NTSR1: Neither NTS nor SBI-553 treatment stimulated β-arrestin2 translocation
NTSR1 [9]
  β-arrestin2 translocation: stimulated β-arrestin2 translocation to the plasma membrane
NTSR1 [9]; [18]
  effect of pretreatment on NTS-induced β-arrestin2 translocation: enhanced
NTSR1 [10]
  effect on NTS-induced Gq activation: attenuated
  Gq activation: neither SBI-553 nor the antagonist SR142948A had any effect
C57BL/6J mice [11]
  wire-hang test, latency to grasp the wire: failed to influence
C57BL/6J mice [12]
  locomotor response vs vehicle in non-stimulant exposed animals: comparable
C57BL/6J mice [12]; cocaine 30 mg/kg i.p.
  cocaine-induced hyperlocomotion: attenuate cocaine-induced hyperlocomotion
C57BL/6J mice [12]; methamphetamine 2 mg/kg
  methamphetamine-induced hyperlocomotion: reduced
NTSR1 [13]; ligand alone
  β-arrestin2 recruitment to NTSR1: stimulated β-arrestin2 recruitment
NTSR1 [13]; low-concentration NTS
  effect of pretreatment on NTS-induced β-arrestin2 recruitment to NTSR1: enhanced
C57BL/6J mice [14]
  peak systolic pressure vs vehicle: no differences
DAT KO mice
  L-DOPA-induced restoration of locomotion: attenuated
NTSR1 [15]; HEK293T cells expressing human NTSR1, ligand alone, NTS 10 nM, SBI-553 10 μM
  pERK generation: failed to elicit pERK generation
NTSR1 [15]; [21]
  effect of pretreatment on NTS-induced pERK: blunted the early sharp peak in pERK
NTSR1 [15]; HEK293 cells lacking the Gq/11 protein (Gq-null)
  NTS-induced pERK, NTS alone vs NTS in combination with SBI-553: comparable pERK time courses
NTSR1 [15]; β-arrestin1/2-null HEK293 cells
  effect of pretreatment on NTS-induced pERK: blocked in its entirety
C57BL/6J mice [16]
  PD149163-induced reduction in core body temperature: dose-dependently attenuated
  PD149163-induced reduction in horizontal activity in the open field: dose-dependently attenuated
C57BL/6J mice [17]
  expression of methamphetamine conditioned place preference: blocked the expression of methamphetamine conditioned place preference

## COc1cccc(OC)c1-c1cc(C(=O)NC2(C(=O)O)C3CC4CC(C3)CC2C4)nn1-c1ccc(C(=O)N(C)CCCN(C)C)cc1C(C)C (stereo not drawn) [SR142948A, reference compound]
NTSR1 [1]
  effect on NTS-induced Ca2+ mobilization: attenuated
  Ca2+ mobilization: neither SBI-553 nor SR142948A stimulated
NTSR1 [3]; NTS 10 nM or SBI-553 10 μM
  block of NTS- and SBI-553-induced NTSR1 internalization: antagonized NTS-induced, but not SBI-553-induced
NTSR1 [4]; 100 nM [3H]SBI-553, 10 μM unlabeled competitor, YOx beads
  displacement of [3H]SBI-553 from NTSR1: not displaced
NTSR1 [7]
  effect on NTS-induced IP3 production: attenuated
  IP3 generation: neither SBI-553 nor SR142948A stimulated
NTSR1 [9]; NTS 5 nM or SBI-553 10 μM
  block of NTS- and SBI-553-induced β-arrestin2 translocation: antagonized NTS-induced, but not SBI-553-induced
NTSR1 [9]
  β-arrestin2 translocation: without effect
NTSR1 [10]
  effect on NTS-induced Gq activation: attenuated
  Gq activation: neither SBI-553 nor the antagonist SR142948A had any effect
NTSR1 [13]
  block of NTS- and SBI-553-induced β-arrestin2 recruitment to NTSR1: antagonized NTS-induced, but not SBI-553-induced
NTSR1 [15]; [21]
  effect of pretreatment on NTS-induced pERK: abolished
